Measurements published in PMC10244465, “Native American ataxia medicines rescue ataxia-linked mutant potassium channel activity via binding to the voltage sensing domain” (Nature Communications, 2023).

Experiments:
Assay type in all cases: cell-based
[1] = target: T1, Kv1.1-V408A channels (Homo sapiens, UniProt Q09470, V408A); assay: TEVC of oocytes expressing 100% Kv1.1-V408A; conditions: compound 1 µM
T1 construct: expressed in transfected cells; host or cells: Xenopus laevis oocytes
Description: EA1 mutant G311D is in the S4-5 linker of Kv1.1 (Fig. 5a) and produces a 65% prepulse current reduction both in Kv1.1-G311D and in Kv1.1/Kv1.1-G311D channels[43],[44]; either channel type was minimally responsive to the plant extracts tested (Supplementary Figs. 3 and 4). EA1 mutant L328V (which is associated with tetany and hypomagnesemia) is located in the intracellular end of Kv1.1 S5 (Fig. 5a) and results in complete current loss in a dominant negative manner, i.e., Kv1.1-L328V and Kv1.1/Kv1.1-L328V channels are each nonfunctional. The traditional ataxia remedy plant extracts were unable to rescue Kv1.1-L328V or Kv1.1/Kv1.1-L328V function (Supplementary Figs. 5 and 6). EA1 mutant V408A is in the intracellular-proximal end of Kv1.1 S6 (Fig. 5a) and reduces current, speeds deactivation, and increases C-type inactivation of Kv1.1[46]. Here, Native American ataxia remedy extracts had relatively minor effects on Kv1.1-V408A activity, with nettle and Pacific ninebark (roots or leaves) inducing hyperpolarizing shifts in EM, and Pacific ninebark leaves inducing a negative shift in the voltage dependence of activation, although this was not quantifiable due to the very small tail currents (Supplementary Fig. 7). Effects of the extracts on Kv1.1/Kv1.1-V408A activity were also relatively minor (Supplementary Fig. 8). […]
(§1) We performed TEVC at room temperature using an OC-725C amplifier (Warner Instruments, Hamden, CT) and pClamp10 software (Molecular Devices, Sunnyvale, CA) 2 days after cRNA injection as described in the section above. […] We recorded currents in response to voltage pulses between −80 mV and +40 mV at 10 or 20 mV intervals from a holding potential of −80 mV, to yield current-voltage relationships and examine activation kinetics. To calculate the voltage dependence of activation (V0.5), tail currents were recorded at a voltage pulse of −50 mV immediately following prepulse voltages between −80 mV and +40 mV. We analyzed data using Clampfit (Molecular Devices) and Graphpad Prism software (GraphPad, San Diego, CA, USA), stating values as mean ± SEM. […]

[2] = target: T2, Kv1.1/Kv1.1-E283K channels (Homo sapiens, UniProt Q09470, E283K); assay: TEVC of oocytes co-injected with 50/50 wild-type/E283K Kv1.1 cRNA
T2 construct: expressed in transfected cells; host or cells: Xenopus laevis oocytes co-injected with 50/50 wild-type/mutant cRNA
Method: (§2) We next tested effects on channels generated by co-injection of 50/50 wild-type/mutant Kv1.1 cRNA. Strikingly, gallic acid (1 µM) was able to hyperpolarize (by −15.5 ± 0.5 mV; n = 4; P < 0.0001) the V0.5 act of Kv1.1/Kv1.1-E283K channels, restoring voltage dependence typical of wild-type Kv1.1 (Fig. 7a–c), also inducing a −14 ± 0.7 mV hyperpolarization (n = 4; P = 0.0005) in EM of oocytes expressing Kv1.1/Kv1.1-E283K (Fig. 7d). […] Because of this hint at activity improvement in L155P channels we also applied higher concentrations (10 and 100 µM) of gallic acid, which produced a more robust (−12.5 ± 0.6 mV and −14.1 ± 0.6 mV, respectively) hyperpolarization of Kv1.1/Kv1.1-L155P V0.5 act (Fig. 8b, c) and hyperpolarized EM by −14.0 ± 0.6 mV and −15.2 ± 0.7 mV, respectively (Fig. 8d).
Wild-type and mutant Kv1 cDNAs were generated (Genscript, Piscataway, NJ) in the pTLNx expression vector. As previously described, we generated cRNA transcripts encoding human Kv1.1 (wild-type and mutant) and Kv1.2, by in vitro transcription using the mMessage mMachine kit (Thermo Fisher Scientific), after vector linearization, from cDNA sub-cloned into plasmids (pTLNx) incorporating Xenopus laevis β-globin 5’ and 3’ UTRs flanking the coding region to enhance translation and cRNA stability. We injected defolliculated stage V and VI Xenopus laevis oocytes (Xenoocyte, Dexter, MI, US) with Kv1 cRNAs (1–5 ng). We incubated the oocytes at 16 °C in ND96 oocyte storage solution containing penicillin and streptomycin, with daily washing, for 2 days prior to two-electrode voltage-clamp (TEVC) recording.
We performed TEVC at room temperature using an OC-725C amplifier (Warner Instruments, Hamden, CT) and pClamp10 software (Molecular Devices, Sunnyvale, CA) 2 days after cRNA injection as described in the section above. For recording, oocytes we placed in a small-volume oocyte bath (Warner) and viewed with a dissection microscope. We sourced chemicals from Sigma. We studied effects of plant extracts and of compounds, solubilized directly in bath solution (in mM): 96 NaCl, 4 KCl, 1 MgCl2, 1 CaCl2, 10 HEPES (pH 7.6). We introduced extracts or compounds into the oocyte recording bath by gravity perfusion at a constant flow of 1 ml per minute for 3 min prior to recording. Pipettes were of 1–2 MΩ resistance when filled with 3 M KCl. We recorded currents in response to voltage pulses between −80 mV and +40 mV at 10 or 20 mV intervals from a holding potential of −80 mV, to yield current-voltage relationships and examine activation kinetics. To calculate the voltage dependence of activation (V0.5), tail currents were recorded at a voltage pulse of −50 mV immediately following prepulse voltages between −80 mV and +40 mV. We analyzed data using Clampfit (Molecular Devices) and Graphpad Prism software (GraphPad, San Diego, CA, USA), stating values as mean ± SEM. We plotted raw or normalized tail currents vs. prepulse voltage and fitted with a single Boltzmann function:1 g=(A1−A2)/1+exp[V1/2−V/Vs]y+A2 where g is the normalized tail conductance, A1 is the initial value at -∞, A2 is the final value at +∞, V1/2 is the half-maximal voltage of activation and Vs the slope factor.

[3] = target: T3, Kv1.1/Kv1.1-V408A channels (Homo sapiens, UniProt Q09470, V408A); assay: TEVC of oocytes co-injected with 50/50 wild-type/V408A Kv1.1 cRNA; conditions: for effect on channel activity: compound 1 µM
T3 construct: expressed in transfected cells; host or cells: Xenopus laevis oocytes co-injected with 50/50 wild-type/mutant cRNA
Method: as §2
Wild-type and mutant Kv1 cDNAs were generated (Genscript, Piscataway, NJ) in the pTLNx expression vector. As previously described, we generated cRNA transcripts encoding human Kv1.1 (wild-type and mutant) and Kv1.2, by in vitro transcription using the mMessage mMachine kit (Thermo Fisher Scientific), after vector linearization, from cDNA sub-cloned into plasmids (pTLNx) incorporating Xenopus laevis β-globin 5’ and 3’ UTRs flanking the coding region to enhance translation and cRNA stability. […]
as §1

T3 sequence (Q09470 whole entry, stated change not applied): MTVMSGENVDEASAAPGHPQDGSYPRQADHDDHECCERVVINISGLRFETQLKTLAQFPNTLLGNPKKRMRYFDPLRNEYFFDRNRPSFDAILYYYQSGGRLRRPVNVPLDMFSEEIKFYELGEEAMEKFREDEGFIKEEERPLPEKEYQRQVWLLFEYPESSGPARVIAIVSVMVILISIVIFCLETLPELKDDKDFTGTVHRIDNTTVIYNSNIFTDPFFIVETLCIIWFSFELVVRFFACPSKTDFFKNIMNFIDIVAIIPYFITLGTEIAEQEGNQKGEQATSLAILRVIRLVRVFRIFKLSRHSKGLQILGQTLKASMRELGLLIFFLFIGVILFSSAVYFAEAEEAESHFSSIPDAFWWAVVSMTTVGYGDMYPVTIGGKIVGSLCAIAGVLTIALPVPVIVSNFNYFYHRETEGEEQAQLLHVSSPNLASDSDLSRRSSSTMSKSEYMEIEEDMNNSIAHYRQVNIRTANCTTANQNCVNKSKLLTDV
T3 sequence (Q09470 whole entry V408A): as the sequence (Q09470 whole entry, stated change not applied) above, with V408A counted along it
T2 sequence (Q09470 whole entry, stated change not applied): as the sequence (Q09470 whole entry, stated change not applied) above
T2 sequence (Q09470 whole entry E283K): as the sequence (Q09470 whole entry, stated change not applied) above, with E283K counted along it
T1 sequence (Q09470 whole entry V408A): as the sequence (Q09470 whole entry, stated change not applied) above, with V408A counted along it

| Molecule | effect on channel activity [1] | hyperpolarizing shift of V0.5 act ([2]; 1 µM) [mV] | effect on channel activity [3] | hyperpolarization in EM ([2]; 1 µM) [mV] | EM ([2]; in presence of 1 µM compound) [mV] | Slope ([2]; in presence of 1 µM compound) [mV] | V0.5 Normalized tail current ([2]; in presence of 1 µM compound) [mV] | EM ([3]; in presence of 1 µM compound) [mV] |
| --- | --- | --- | --- | --- | --- | --- | --- | --- |
| tannic acid | subtle improvements in Kv1.1-V408A function but slowed its activation | −12 | minimal | – | – | – | – | – |
| O=C(O)c1cc(O)c(O)c(O)c1 [gallic acid] | ineffective at rescuing activity | −15.5 ± 0.5 | negligible | −14 ± 0.7 | -47.80 ± 0.65 | 5.70 ± 1.12 | -27.50 ± 0.51 | -46.60 ± 0.60 |
